Assay results: US7879835B2 (Korea Research Institute of Chemical Technology, priority 2004, dated 2011)

Tests used:
[1] = test system: osteoclast (TRAP-positive multinuclear cell) formation; assay: Inhibitory effect on osteoclast formation (TRAP staining); type: cell-based, mice; conditions: compared to control; for inhibition at 0.1 µM / inhibition at 0.3 µM / inhibition at 1 µM / inhibition at 3 µM: Mus musculus, Osteoclast, read-out: Osteoclast formation inhibitory effects (%); for inhibition at 0.1 µM: 0.1 μM (Table 4b); for inhibition at 0.3 µM: 0.3 μM (Table 4b); for inhibition at 1 µM: 1 μM (Table 4b); for inhibition at 3 µM: 3 μM (Table 4b); for Osteoclast formation inhibitory effects (%): 8 days culture with M-CSF and RANKL
Description: The inhibitory activities of the alpha-arylmethoxyacrylate derivatives prepared in the above Examples on the proliferation of osteoclasts were examined as follows.
First, a bone marrow sample containing osteoclast pregenitor cells was isolated as follows. After sacrificing 7 to 9 week-old female mice by cervical dislocation, femur and tibia were excised aseptically while removing soft tissues attached thereto, After cutting both ends of the long bones, 1 ml of an enzyme solution containing 0.1% collagenase (Gibco), 0.05% trypsin and 0.5 mM EDTA (Gibco) was injected into the bone marrow cavity at one end using a syringe with a 26-gauge needle, and the bone marrow was then collected. After stirring the recovered bone marrow for 30 min, the precipitated bone marrow cells were collected, and cultured in α-minimum essential medium (α-MEM) supplemented with 10% FBS for 24 hrs. Then, non-adherent cells, which are osteoclast pregenitors, were aliquoted onto a culture plate at a density of 2×10^5 cells per well, and cultured for 8 days in α-MEM supplemented with 20 ng/ml of macrophage-colony stimulating factor (M-CSF, Peprotech, USA), 30 ng/ml RANKL (Peprotech, USA), and 0.3, 1.0 or 3 μM of the compounds of the Examples. Control cells were cultured at the same condition except not adding the compounds of the Examples.
After cell culture for 8 days, the adherent cells were washed with PBS and fixed with citrate-acetate-formaldehyde for 5 min. The fixed cells were incubated at 37° C. for 1 hr in acetate buffer (pH 5.0) containing naphthol AS-BI phosphate, fast Garnet GBC solution and 7 mM tartrate buffer (pH 5.0) to conduct TRAP (tartrate-resistant acid phosphatase) staining.

osteoclasts = assay: Inhibitory effect on resorption activity of osteoclast (resorption pit area on calcium phosphate-coated plate); type: cell-based, mice; conditions: compared to control
Description: After finishing culture, the plate was washed with distilled water, and 50 μl/well of 5% sodium hypochlorite was added to the plate. The plate was let alone for 5 min, washed again with distilled water to remove the adherent cells, and dried at room temperature. Then, the area of formed resorption pits was calculated by means of Image Pro Plus software (Media Cybernetics Ver. 3.0).

| Compound | inhibition at 0.1 µM [1] | inhibition at 0.3 µM [1] | inhibition at 1 µM [1] | inhibition at 3 µM [1] | Reduction (%) of the resorption pit area of osteoclasts (osteoclasts; 0.3 uM) | Reduction (%) of the resorption pit area of osteoclasts (osteoclasts; 1 uM) | Reduction (%) of the resorption pit area of osteoclasts (osteoclasts; 3 uM) | Osteoclast formation inhibitory effects (%) ([1]; 0.3 μM) | Osteoclast formation inhibitory effects (%) ([1]; 1.0 μM) | Osteoclast formation inhibitory effects (%) ([1]; 3.0 μM) |
| --- | --- | --- | --- | --- | --- | --- | --- | --- | --- | --- |
| CO/C=C(/C(=O)OC)c1ccccc1COc1ccc(NCC(C)C)cc1F [Compound No. 425, (E)-methyl-2-[2-((4-(N-isobutylamino)-2-fluorophenoxy)methyl)phenyl]-3-methoxyacrylate] | 0% | 51% | 100% | 100% | – | – | – | – | – | – |
| CO/C=C(/C(=O)OC)c1ccccc1COc1ccc(C(C)F)cc1 (stereo not shown) [compound 170] | – | – | – | – | 0% | 100% | 100% | 81% | 100% | 100% |
| CO/C=C(/C(=O)OC)c1ccccc1COc1ccc(OC2CCCC2)cc1 [compound 172] | – | – | – | – | 90% | 100% | 100% | 90% | 100% | 100% |
| CO/C=C(/C(=O)OC)c1ccccc1COc1ccc(OCC(C)C)cc1 [compound 174] | – | – | – | – | 100% | 100% | 100% | 35% | 100% | 100% |
| CCC(C)Oc1ccc(OCc2ccccc2/C(=C\OC)C(=O)OC)cc1 (stereo not shown) [compound 175] | – | – | – | – | 99% | 100% | 100% | 14% | 100% | 100% |
| C=CCCOc1ccc(OCc2ccccc2/C(=C\OC)C(=O)OC)cc1 [compound 178] | – | – | – | – | 97% | 100% | 100% | 89% | 100% | 100% |
| CCOc1ccc(OCc2ccccc2/C(=C\OC)C(=O)OC)cc1 [compound 183] | – | – | – | – | 100% | 100% | 100% | 96% | 100% | 100% |
| CCCOc1ccc(OCc2ccccc2/C(=C\OC)C(=O)OC)cc1 [compound 192] | – | – | – | – | 100% | 100% | 100% | 68% | 100% | 100% |
| CCCCCCCOc1cccc(OCc2ccccc2/C(=C\OC)C(=O)OC)c1 [compound 201] | – | – | – | – | 100% | 100% | 100% | 12% | 70% | 100% |
| CCCCCCCCc1cccc(OCc2ccccc2/C(=C\OC)C(=O)OC)c1 [compound 229] | – | – | – | – | 0.00% | 100% | 100% | 100% | 100% | 100% |
| CO/C=C(/C(=O)OC)c1ccc(Cl)cc1COc1cccc(CO)c1 [compound 262] | – | – | – | – | 93% | 100% | 100% | 93% | 100% | 100% |
| CO/C=C(/C(=O)OC)c1ccccc1COc1cccc(N2CCOCC2)n1 [compound 348] | – | 24% | 99% | 100% | – | – | – | – | – | – |
| CO/C=C(/C(=O)OC)c1ccccc1COc1cccc(N2CCOCC2)c1 [compound 349] | 2% | 53% | 100% | 100% | – | – | – | – | – | – |
| CO/C=C(/C(=O)OC)c1ccccc1COc1ccc(NCC(C)C)cc1 [compound 361] | – | – | 95% | 100% | – | – | – | – | – | – |
| C=CCN(CC=C)c1ccc(OCc2ccccc2/C(=C\OC)C(=O)OC)cc1F [compound 367] | – | – | 87% | 100% | – | – | – | – | – | – |
| CO/C=C(/C(=O)OC)c1ccccc1COc1ccc(NCC2CC2)c(F)c1 [compound 372] | – | – | 91% | 100% | – | – | – | – | – | – |
| CO/C=C(/C(=O)OC)c1ccccc1COc1cccc(NC2CCCC2)c1 [compound 380] | – | 8% | 51% | 100% | – | – | – | – | – | – |

| Compound | inhibition at 0.1 µM [1] | inhibition at 0.3 µM [1] | inhibition at 1 µM [1] | inhibition at 3 µM [1] | Reduction (%) of the resorption pit area of osteoclasts (osteoclasts; 0.3 uM) | Reduction (%) of the resorption pit area of osteoclasts (osteoclasts; 1 uM) | Reduction (%) of the resorption pit area of osteoclasts (osteoclasts; 3 uM) | Osteoclast formation inhibitory effects (%) ([1]; 0.3 μM) | Osteoclast formation inhibitory effects (%) ([1]; 1.0 μM) | Osteoclast formation inhibitory effects (%) ([1]; 3.0 μM) |
| --- | --- | --- | --- | --- | --- | --- | --- | --- | --- | --- |
| C=CCNc1cccc(OCc2ccccc2/C(=C\OC)C(=O)OC)c1 [compound 381] | – | 5% | 67% | 100% | – | – | – | – | – | – |
| CO/C=C(/C(=O)OC)c1ccccc1COc1cccc(NCCC(C)C)c1 [compound 383] | – | 6% | 94% | 100% | – | – | – | – | – | – |
| CO/C=C(/C(=O)OC)c1ccc(Cl)cc1COc1cccc(N2CCCCC2)c1 [compound 387] | 1% | 100% | 100% | 100% | – | – | – | – | – | – |
| CO/C=C(/C(=O)OC)c1ccc(Cl)cc1COc1cccc(N(C)c2ccccc2)c1 [compound 390] | 2% | 94% | 99% | 100% | – | – | – | – | – | – |
| CO/C=C(/C(=O)OC)c1ccccc1COc1cccc(N2CCCC2)c1 [compound 392] | – | 2% | 95% | 100% | – | – | – | – | – | – |
| CO/C=C(/C(=O)OC)c1ccccc1COc1ccc(N2CCCC2)cn1 [compound 397] | – | 22% | 100% | 100% | – | – | – | – | – | – |
| CO/C=C(/C(=O)OC)c1ccccc1COc1ccc(N(C)c2ccccc2)cc1 [compound 400] | 0% | 53% | 99% | 100% | – | – | – | – | – | – |
| CO/C=C(/C(=O)OC)c1ccccc1COc1cccc(N2CCN(C(=O)OC(C)(C)C)CC2)c1 [compound 406] | 41% | 100% | 100% | 100% | – | – | – | – | – | – |
| CO/C=C(/C(=O)OC)c1ccccc1COc1ccc(N2CCOCC2)cc1F [compound 408] | 0% | 52% | 100% | 100% | – | – | – | – | – | – |
| CO/C=C(/C(=O)OC)c1ccccc1COc1cccc(N2CCCCC2)n1 [compound 413] | – | 11% | 100% | 100% | – | – | – | – | – | – |
| CO/C=C(/C(=O)OC)c1ccccc1COc1cccc(N(C)c2ccccc2)n1 [compound 414] | – | 32% | 100% | 100% | – | – | – | – | – | – |
| CO/C=C(/C(=O)OC)c1ccccc1COc1ccc(N(C)c2ccccc2)c(F)c1 [compound 417] | – | 24% | 97% | 100% | – | – | – | – | – | – |
| CO/C=C(/C(=O)OC)c1ccccc1COc1ccc(N2CCCC2)c(F)c1 [compound 418] | – | 11% | 81% | 100% | – | – | – | – | – | – |
| C=CCN(CC=C)c1ccc(OCc2ccccc2/C(=C\OC)C(=O)OC)c(F)c1 [compound 421] | – | 14% | 100% | 100% | – | – | – | – | – | – |
| CO/C=C(/C(=O)OC)c1ccccc1COc1ccc(N(CC2CC2)CC2CC2)cc1F [compound 422] | 11% | 98% | 100% | 100% | – | – | – | – | – | – |
| CO/C=C(/C(=O)OC)c1ccccc1COc1ccc(NCC2CC2)cc1F [compound 423] | 0% | 51% | 100% | 100% | – | – | – | – | – | – |
| CO/C=C(/C(=O)OC)c1ccccc1COc1ccc(N(C)CC2CC2)cc1F [compound 424] | 0% | 92% | 100% | 100% | – | – | – | – | – | – |
